In paper PMC3938834, “De Novo Peptide Design and Experimental Validation of Histone Methyltransferase Inhibitors” (PLoS ONE, 2014) one finds IC50 data, which are given here for 7 compounds.

Assay [1] relates to EZH2. To be noted: small molecule inhibitor quoted for reference; cited from earlier work. Here is the method:
To quantitatively measure the inhibition properties of the designed sequences, peptide dose titrations were performed. The concentration of peptide required to suppress 50% of the enzymatic activity (i.e. half-maximal inhibitory concentration, ) and the Hill coefficient (measure of cooperativity of binding) were calculated (Table 2).

The target of assay [2] is T1, EZH2 (reconstituted recombinant PRC2 containing full length EZH2, SUZ12, EED, RBAP46/48) (Homo sapiens, UniProt Q15910).
T1 construct: reconstituted recombinant PRC2 (containing full length EZH2, SUZ12, EED, RBAP46/48)
T1 sequence (Q15910 whole entry): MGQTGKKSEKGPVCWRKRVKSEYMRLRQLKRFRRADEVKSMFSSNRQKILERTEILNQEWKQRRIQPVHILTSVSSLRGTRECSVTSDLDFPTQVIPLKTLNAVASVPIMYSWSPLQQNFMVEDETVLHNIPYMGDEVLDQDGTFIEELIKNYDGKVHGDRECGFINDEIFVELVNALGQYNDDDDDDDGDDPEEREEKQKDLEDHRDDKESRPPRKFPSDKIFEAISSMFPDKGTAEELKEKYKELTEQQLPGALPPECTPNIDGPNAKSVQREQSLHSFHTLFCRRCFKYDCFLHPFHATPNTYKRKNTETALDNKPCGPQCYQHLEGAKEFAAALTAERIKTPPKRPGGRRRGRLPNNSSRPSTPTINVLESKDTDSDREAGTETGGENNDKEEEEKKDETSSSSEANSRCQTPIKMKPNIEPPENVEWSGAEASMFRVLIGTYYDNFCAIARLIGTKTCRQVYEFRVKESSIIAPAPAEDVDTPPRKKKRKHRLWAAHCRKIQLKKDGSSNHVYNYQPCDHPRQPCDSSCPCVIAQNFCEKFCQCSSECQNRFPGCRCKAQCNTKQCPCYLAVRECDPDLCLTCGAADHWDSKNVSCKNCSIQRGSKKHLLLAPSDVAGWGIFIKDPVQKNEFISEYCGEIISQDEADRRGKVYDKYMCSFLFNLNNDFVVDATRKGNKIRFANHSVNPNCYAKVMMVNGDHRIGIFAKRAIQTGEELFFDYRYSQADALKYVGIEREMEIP
T1 sequence (Q15022 whole entry partner): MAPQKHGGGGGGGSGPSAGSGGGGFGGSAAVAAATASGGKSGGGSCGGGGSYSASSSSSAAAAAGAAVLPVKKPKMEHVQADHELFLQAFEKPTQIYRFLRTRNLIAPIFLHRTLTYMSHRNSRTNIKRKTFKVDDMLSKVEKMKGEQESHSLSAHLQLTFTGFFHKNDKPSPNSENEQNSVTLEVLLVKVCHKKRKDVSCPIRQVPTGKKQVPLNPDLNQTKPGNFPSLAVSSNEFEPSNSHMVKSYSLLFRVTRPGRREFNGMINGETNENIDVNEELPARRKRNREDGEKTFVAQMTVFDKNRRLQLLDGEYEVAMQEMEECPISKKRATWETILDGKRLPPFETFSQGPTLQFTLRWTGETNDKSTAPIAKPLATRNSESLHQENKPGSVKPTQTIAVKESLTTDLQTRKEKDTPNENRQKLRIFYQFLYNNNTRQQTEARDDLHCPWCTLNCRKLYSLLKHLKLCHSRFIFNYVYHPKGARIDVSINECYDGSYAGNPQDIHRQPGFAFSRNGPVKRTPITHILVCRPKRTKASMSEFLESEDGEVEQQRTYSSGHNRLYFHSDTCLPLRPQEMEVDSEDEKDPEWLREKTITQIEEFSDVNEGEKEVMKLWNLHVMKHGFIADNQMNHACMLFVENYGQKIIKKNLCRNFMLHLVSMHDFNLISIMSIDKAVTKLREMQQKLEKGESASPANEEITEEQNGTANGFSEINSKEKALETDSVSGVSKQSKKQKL
T1 sequence (O75530 whole entry partner): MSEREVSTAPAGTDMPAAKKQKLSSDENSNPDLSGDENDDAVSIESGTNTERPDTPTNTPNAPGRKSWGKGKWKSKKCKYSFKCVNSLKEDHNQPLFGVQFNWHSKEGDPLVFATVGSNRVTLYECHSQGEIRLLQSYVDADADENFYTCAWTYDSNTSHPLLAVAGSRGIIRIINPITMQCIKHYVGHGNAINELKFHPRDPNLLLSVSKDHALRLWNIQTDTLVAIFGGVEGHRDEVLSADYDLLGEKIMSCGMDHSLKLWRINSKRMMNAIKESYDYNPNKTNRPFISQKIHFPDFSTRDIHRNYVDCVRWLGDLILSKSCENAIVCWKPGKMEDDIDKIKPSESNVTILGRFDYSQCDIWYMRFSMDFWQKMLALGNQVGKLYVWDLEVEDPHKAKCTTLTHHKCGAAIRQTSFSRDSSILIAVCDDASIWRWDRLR
T1 sequence (Q09028 whole entry partner): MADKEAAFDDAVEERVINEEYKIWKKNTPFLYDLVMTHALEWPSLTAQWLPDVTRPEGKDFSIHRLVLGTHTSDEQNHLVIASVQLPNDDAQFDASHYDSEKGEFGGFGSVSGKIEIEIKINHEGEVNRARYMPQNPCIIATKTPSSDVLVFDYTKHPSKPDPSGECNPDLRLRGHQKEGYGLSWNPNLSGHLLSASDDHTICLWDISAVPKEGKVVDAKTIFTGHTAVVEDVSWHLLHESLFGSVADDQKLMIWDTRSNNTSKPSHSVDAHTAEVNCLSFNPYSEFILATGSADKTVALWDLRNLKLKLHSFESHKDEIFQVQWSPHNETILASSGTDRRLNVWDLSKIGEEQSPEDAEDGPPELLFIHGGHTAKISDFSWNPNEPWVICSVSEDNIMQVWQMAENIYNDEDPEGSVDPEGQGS
Nature of the assay: radiometric EZH2 HMT enzymatic assay, 384-well Flashplate, 10-point dose titrations. It is filed as biochemical. Here is the method:
Experiments were performed using radiometric EZH2 enzymatic assays prepared individually or in a semi-automated fashion on a 384-well platform. For the experiments shown in Figures 3.A, 3.C, and 3.D, 4 [drawing 50] g of oligonucleosomes was used per reaction. For the experiments shown in Figures 3.C–D, 3 [drawing 51] g of PRC2 complex were added. For all other HMT assays (Figure 4, Figure 5, and Table 2) the following balanced conditions (at Km for cofactor and substrate) were used. […] The putative peptide inhibitors were tested in single point assays and in 10-point dose titrations. The total volume of the reaction mixture was 30 [drawing 55] L. Reactions were incubated for 1 hour at [drawing 56] C. Reactions terminated by the addition of 10 [drawing 57] L, 5× Laemmli Sample Buffer were loaded onto 15% Tri-Glycine-Polyacrylamide gels and resolved by PAGE. Resolved proteins were transferred to PVDF membrane at 65 V for 2 hours. Membranes were stained with CBB, destained, dried, and exposed to imaging plates for 24 hours. Images were detected using an FLA-7000 bioimaging system (Fujifilm). Reactions terminated by the addition of SAH to a final concentration of 850 [drawing 58] M were transferred to a 384-well Flashplate (Perkin Elmer) and incubated for 90 min. Liquids were aspirated and wells washed with 1×60 [drawing 59] L of wash buffer (50 mM Tris, pH 8.5, 200 mM NaCl, 0.01% NP-40). Detection of incorporated radioactivity in Flashplates was carried out using a Topcount instrument (Perkin Elmer). Potential inhibitory peptides were tested in single point assays and in 10-point dose titrations. Mechanism of Action Enzymatic Assays were performed under the same conditions and using the same protocol. However, in the Mechanism of Action Enzymatic assays the assays were performed with varied enzyme, substrate, or cofactor concentration to identify the mechanism of inhibition.
In order to assess the inhibitory capability of the candidate peptides experimentally, HMT enzymatic assays were conducted. These HMT assays assessed the EZH2-dependent transfer of tritiated methyl-groups from the methyl-donor SAM to reconstituted oligonucleosomes (see Methods for details).
To quantitatively measure the inhibition properties of the designed sequences, peptide dose titrations were performed. The concentration of peptide required to suppress 50% of the enzymatic activity (i.e. half-maximal inhibitory concentration, [drawing 76] ) and the Hill coefficient (measure of cooperativity of binding) were calculated (Table 2).
Understanding the mechanism of action allows us to determine whether the competitive inhibition targeted by the design framework and the input biological constraints has been successful.

Where two headings read alike, the source gives them in different places. No end group written: not given here.

Take `CCC(CC)n1ccc2c(C(=O)NCc3c(C)cc(C)[nH]c3=O)cc(C#N)cc21` [EI1]: in assay [1], the 50% inhibitory concentration (IC50) (usually the concentration needed to halve the response being measured) is roughly 0.015 µM.
Turning to GKAPRKQLANRKWWKNYPRDG [SQ040], the IC50 in assay [2] (read-out: IC50) was found to be 41 ± 1.19 µM.
Take GKAPRKQLAPKAATKNARATS [SQ026]: the IC50 in assay [2] (read-out: IC50) was found to be 19.6 ± 1.12 µM.
Consider GKAPRKQLARKNWWKNYPRDG [SQ043], for which the half-inhibitory concentration (IC50) in assay [2] (read-out: IC50) turned out to be 39.7 ± 1.17 µM.
Turning to GKAPRKQLARRKWWFNYPQNG [SQ037], the 50% inhibitory concentration (IC50) in assay [2] (Figure 5, high throughput radiometric assay, SQ037 versus native and mutated peptides, value printed in the picture without unit, read-out: IC50) came to 8.05 µM; in assay [2] (read-out: IC50), 13.6 ± 1.24 µM.
As for GKAPRKQLASAKKAAATPRTG [SQ010], the IC50 in assay [2] (read-out: IC50) was determined as 54.9 ± 1.26 µM.
Take GKAPRKQLASKAARAATPKTG [SQ020]: in assay [2], the half-maximal inhibitory concentration (IC50) turned out to be 34.2 ± 1.46 µM.
